Assay results as given in PubChem BioAssay AID296 (DTP/NCI, 2004).
Where “and” joins values, the source holds several entries; their conditions need not be identical. Identical values can stand only once. Inconclusive results are not listed.

System: MX-1 breast xenograft, nude mice, tumor weight T/C
Assay: NCI In Vivo Anticancer Drug Screen. Data for tumor model Human Mammary Carcinoma MX-1 Xenograft (intrarenal inoculation) in NU/NU Swiss (nude) mice
Settings: endpoint: mean tumor weight change, higher = larger tumour
Method: The antitumor activity of compounds was measured in mice bearing transplantable tumors. Survival or tumor size were measured and the results are expressed as the measurement made in the treated group (T) divided by the measurement made in the vehicle treated control group (C). The tumor model used in this assay is Human Mammary Carcinoma MX-1 Xenograft (intrarenal inoculation) in NU/NU Swiss (nude) mice

[1] = dose: 150.0 mg/kg/injection, schedule: Q04DX003 (sc), vehicle: saline with Tween-80
[2] = dose: 300.0 mg/kg/injection, schedule: Q04DX003 (sc), vehicle: saline with Tween-80
[3] = dose: 600.0 mg/kg/injection, schedule: Q04DX003 (sc), vehicle: saline with Tween-80

COc1cc([C@@H]2c3cc4c(cc3[C@@H](OC3OC5COC(C)OC5C(O)C3O)[C@H]3COC(=O)[C@H]23)OCO4)cc(OC)c1O (some centres undefined)
T/C (dose: 2.0 mg/kg/injection, schedule: Q01DX010 (sc), vehicle: saline): 72 % of control
T/C (dose: 4.0 mg/kg/injection, schedule: Q01DX010 (sc), vehicle: saline): 97 % of control
T/C (dose: 8.0 mg/kg/injection, schedule: Q01DX010 (sc), vehicle: saline): 51 % of control
T/C (dose: 16.0 mg/kg/injection, schedule: Q01DX010 (sc), vehicle: saline): 72 % of control

CN(C)C1C(=O)C(C(=O)NP(=O)(NCCCO)N(CCCl)CCCl)=C(O)C2(O)C(=O)C3=C(O)c4c(O)cccc4C(C)(O)C3CC12 (centres undefined)
T/C [1]: -100 % of control
T/C [2]: -98 % of control
T/C [3]: -100 % of control

C[C@@H](CN1CC(=O)NC(=O)C1)N1CC(=O)NC(=O)C1
T/C (dose: 100.0 mg/kg/injection, schedule: Q01DX010 (sc), vehicle: saline with Tween-80): 63 % of control
T/C (dose: 200.0 mg/kg/injection, schedule: Q01DX010 (sc), vehicle: saline with Tween-80): 81 % of control
T/C (dose: 400.0 mg/kg/injection, schedule: Q01DX010 (sc), vehicle: saline with Tween-80): 39 % of control

CN=C(N)N/N=C(\C)c1ccc2c(c1)Cc1ccccc1-2
T/C [1]: 105 % of control
T/C [2]: 115 % of control
T/C [3]: 105 % of control
T/C (dose: 1200.0 mg/kg/injection, schedule: Q04DX003 (sc), vehicle: saline with Tween-80): 191 % of control

COc1cc(C)c2c(c1C=O)Oc1c(c(C)c(O)c3c1C(O)OC3=O)OC2=O (centres undefined)
T/C (dose: 6.25 mg/kg/injection, schedule: Q01DX010 (sc), vehicle: saline): 90 % of control
T/C (dose: 12.5 mg/kg/injection, schedule: Q01DX010 (sc), vehicle: saline): 62 % of control and 78 % of control
T/C (dose: 25.0 mg/kg/injection, schedule: Q01DX010 (sc), vehicle: saline): 96 % of control and 118 % of control
T/C (dose: 50.0 mg/kg/injection, schedule: Q01DX010 (sc), vehicle: saline): 67 % of control and 88 % of control
T/C (dose: 100.0 mg/kg/injection, schedule: Q01DX010 (sc), vehicle: saline): 98 % of control

ClCCCN1CCN(CCCCl)CC1
T/C (dose: 75.0 mg/kg/injection, schedule: Q04DX003 (sc), vehicle: saline + alcohol): 113 % of control
T/C (dose: 150.0 mg/kg/injection, schedule: Q04DX003 (sc), vehicle: saline + alcohol): 28 % of control

CC(=O)OC(C)C1C2=C(C(=O)CC1(C)O)C(=O)c1c(ccc(-c3ccc4c(c3O)C(=O)C3=C(C4=O)C(C(C)OC(C)=O)C(C)(O)CC3=O)c1O)C2=O (centres undefined)
T/C (dose: 7.5 mg/kg/injection, schedule: Q04DX003 (sc), vehicle: saline with Tween-80): 33 % of control
T/C (dose: 30.0 mg/kg/injection, schedule: Q04DX003 (sc), vehicle: saline with Tween-80): 98 % of control
T/C (dose: 60.0 mg/kg/injection, schedule: Q04DX003 (sc), vehicle: saline with Tween-80): 96 % of control

C[n+]1ccc(Nc2ccc(NC(=O)c3ccc(Nc4cc[n+](C)c5ccc(N)cc45)cc3)cc2)cc1
T/C (dose: 50.0 mg/kg/injection, schedule: Q04DX003 (sc), vehicle: distilled water + Tween-80): 59 % of control

CCN(Cc1ccc(Cl)c(Cl)c1)c1ccc2nc(N)nc(N)c2c1C
T/C (dose: 9.38 mg/kg/injection, schedule: Q04DX003 (sc), vehicle: distilled water + Tween-80): 93 % of control
T/C (dose: 18.75 mg/kg/injection, schedule: Q04DX003 (sc), vehicle: distilled water + Tween-80): 86 % of control

Oc1c(Cl)cc(C(c2cc(Cl)c(O)c(Cl)c2)C(c2cc(Cl)c(O)c(Cl)c2)c2cc(Cl)c(O)c(Cl)c2)cc1Cl
T/C (dose: 300.0 mg/kg/injection, schedule: Q04DX003 (sc), vehicle: Klucel (hydroxypropylcellulose) (HPC)): 108 % of control
T/C (dose: 600.0 mg/kg/injection, schedule: Q04DX003 (sc), vehicle: Klucel (hydroxypropylcellulose) (HPC)): 79 % of control
T/C (dose: 1200.0 mg/kg/injection, schedule: Q04DX003 (sc), vehicle: Klucel (hydroxypropylcellulose) (HPC)): 73 % of control
T/C (dose: 2400.0 mg/kg/injection, schedule: Q04DX003 (sc), vehicle: Klucel (hydroxypropylcellulose) (HPC)): 88 % of control

CN(C)N=Nc1ccc(C(=O)O)cc1
T/C (dose: 100.0 mg/kg/injection, schedule: Q04DX003 (ip), vehicle: saline): 55 % of control
T/C (dose: 200.0 mg/kg/injection, schedule: Q04DX003 (ip), vehicle: saline): 16 % of control
T/C (dose: 400.0 mg/kg/injection, schedule: Q04DX003 (ip), vehicle: saline): -31 % of control
